Values of other authors as cited in patent publication US20060270611A1, “PEDIATRIC FORMULATION OF TOPIRAMATE” (priority 2005, published 2006).

Conditions: clinical trials of human epilepsy; adjunctive therapy or monotherapy

## CC1(C)O[C@H]2[C@H]3OC(C)(C)O[C@]3(COS(N)(=O)=O)OC[C@H]2O1 [Topiramate, 2,3:4,5-bis-O-(1-methylethylidene) β-D-fructopyranose sulfamate]
  efficacy in treating simple and complex partial seizures and secondarily generalized seizures: effective as adjunctive therapy or as monotherapy
